The text below walks through data of patent publication US20080064758A1, “METHOD OF TREATMENT OR PROPHYLAXIS OF DEPRESSION” (MediciNova, Inc., priority 2006, published 2008).

Experiment [1] relates to apomorphine-induced hypothermia. The experiment is described as follows: Antagonism of apomorphine-induced hypothermia. The conditions noted are these: male CD1 mice; i.p.; apomorphine 16 mg/kg s.c.; rectal temperature 30 min after apomorphine. It is filed as in vivo. As for the experimental part: Antagonism of Apomorphine-Induced Hypothermia (A. J. Puech et al., Psychopharmacology (1981) 75(1):84-91)
Male CD1 mice (Charles River) weighing 22-25 g are used in the test. The mice are housed individually in transparent plastic cages. The compounds of a general formula (I) as well as the reference compounds are suspended in 1% aqueous carboxymethylcellulose and administered intraperitoneally (10 ml/kg; 6 mice per dose). Control animals received the vehicle only.
Rectal temperature is measured using a probe carrying a thermoelectric couple (connected to a galvanometer) inserted to a constant depth.
The compounds to be tested as well as the vehicle are administered 30 minutes after basal rectal temperature is measured, and 30 minutes later apomorphine (16 mg/kg) is administered subcutaneously. Rectal temperature is measured again 30 minutes after the administration of apomorphine.
The results are expressed as average rectal temperature of each group, by evaluating the significant differences in temperature between treated and control mice by Student's t test, and are used for calculating the M.A.D., i.e., the minimal active dose.

The test system of experiment [2] is reserpine-induced hypothermia. The experiment is described as follows: Antagonism of the reserpine-induced hypothermia. The following applies: given 4 hours after reserpine 2.5 mg/kg i.p.; rectal temperature 90 min after compound. It is filed as in vivo, mice. The protocol: Antagonism of the Reserpine-Induced Hypothermia
The compounds of a general formula (I) as well as the reference compounds are administered 4 hours after reserpine (2.5 mg/kg i.p.). Rectal temperature is measured 90 minutes after the administration of the compounds to be tested.

For another experiment, the system named is immobility of mice. The experiment is described as follows: Tail suspension. Format: in vivo. The conditions noted are these: 30 mg/kg PO, reference. As for the experimental part:
Compounds of a general formula (I) (starting at an initial dose of 30 mg/kg PO, 1 hr pretreatment) were administered to mice (n=5). A reduction of immobility by 50% or more relative to a vehicle-treated control group indicates possible antidepressant activity. Fluoxetine hydrochloride served as a standard reference compound. […] There was a 35% mobility reduction at 100 mg/kg PO, 54% mobility reduction at 10 mg/kg PO and 46% mobility reduction at 1 mg/kg PO.

Counter-ions that a name gives are not always drawn.

With `CC(C)(C)NCC(O)c1ccc(O)c(CO)c1` (stereo not drawn) [salbutamol], the “M.A.D. (minimal active dose), antagonism of apomorphine-induced hypothermia” value in experiment [1] is recorded as 1.0 mg/kg i.p. For the same compound, the “M.A.D. (minimal active dose), antagonism of reserpine-induced hypothermia” value in experiment [2] is on record as 3.0 mg/kg i.p.

As to `CC(C)(C)NCC(O)c1cc(Cl)c(N)c(Cl)c1` (stereo not drawn) [clenbuterol], the “M.A.D. (minimal active dose), antagonism of apomorphine-induced hypothermia” value in experiment [1] is 0.03 mg/kg i.p. In addition, the “M.A.D. (minimal active dose), antagonism of reserpine-induced hypothermia” value in experiment [2] came to 0.03 mg/kg i.p. As for `CCOC(=O)COc1cccc([C@@H]2CCC[C@@H](NC[C@H](O)c3cccc(Cl)c3)C2)c1` [Compound A, 3-[(1R,3R)-3-[(2R)-2-(3-chlorophenyl)-2-hydroxyethylamino]cyclohexyl]-phenoxy acetic acid ethyl ester, maleate salt], the “M.A.D. (minimal active dose), antagonism of reserpine-induced hypothermia” value in experiment [2] was “closer to clenbuterol (0.03 mg/kg i.p.) than salbutamol (3.0 mg/kg i.p.)”. Take `CNCCC(Oc1ccc(C(F)(F)F)cc1)c1ccccc1` (stereo not drawn) [fluoxetine, Fluoxetine hydrochloride]: the reduction of immobility in the experiment on immobility of mice is listed as 87%.
